According to patent publication US20060079453A1, “Hla binding peptides and their uses” (priority 2002, published 2006):
No end group written: not given here.

The sequences below were run against HLA-A*6801 (Homo sapiens, UniProt P04439, A269V/D185E/E176V/E277Q/E87N/F33Y/G231S/I121M/I166T/I218V/L180W/L300P/L318F/N151K/P208A/P217A/Q86R/R169H/T345S) (assay: biochemical).
Assay type: binding
Work on ALERLLSLK yielded an IC50 of 13700 nM. Sequence STLGPGPGVRR has an IC50 of 3.8 nM. Work on NSVYGETLER yielded an IC50 of 18 nM. With ETVRHFPR the IC50 was 86 nM. For STLPGPGPGRR, the IC50 was 25 nM. YTFVFADLR showed an IC50 of 2.9 nM. Work on RFHSIAGQYK yielded an IC50 of 83 nM. Sequence RLYSKVSEFR has an IC50 of 73 nM. For KSMLKELIK, the IC50 was over 37000 nM. GVNHQHLPAK gave an IC50 of 9350 nM. KISEYRHYNR gave an IC50 of 1580 nM. In the case of SSFDIKSEVK, the IC50 is reported as 31 nM. In the case of RVHFASPLH, the IC50 is reported as 7620 nM. In the case of KFYSKISEYK, the IC50 is reported as 208 nM. For FAFADLTVVY, the IC50 was 402 nM. GVSHAQLPAK showed an IC50 of 20600 nM. For KTLGISYGR, the IC50 was 36 nM. AVPGGYPRRK showed an IC50 of 846 nM. In the case of KVGSLQYLK, the IC50 is reported as 4200 nM. AVADLTVVYR gave an IC50 of 7.3 nM. QMMNVNLQK was tested, and the IC50 was 243 nM. With VTVRIGGMQK the IC50 was 155 nM. Sequence GVSGPGPGK has an IC50 of 209 nM. With STGPGPGVVRR the IC50 was 5.8 nM. Work on VTVYGPGPGWK yielded an IC50 of 206 nM. With FISFYLINK the IC50 was 18 nM. DTVYGDTLEK gave an IC50 of 31 nM. For EVLEIPLIDLR, the IC50 was 27 nM. In the case of EVYNFACTELK, the IC50 is reported as 2.7 nM.

These sequences were tested against HLA-A*3301 (Homo sapiens, UniProt P04439, A270S/D185E/E176V/E277Q/E87N/F33T/G231S/H175R/I121M/I218V/I322F/K168Q/K210R/L300P/L318F/M331R/P217A/Q86R/Q94H/R138Q/T323A/T345S/T97I/V358M/Y195H) (assay: biochemical).
Assay type: binding
For ALERLLSLK, the IC50 was 12800 nM. STLGPGPGVRR was tested, and the IC50 was 670 nM. For NSVYGETLER, the IC50 was 1330 nM. In the case of ETVRHFPR, the IC50 is reported as 81 nM. STLPGPGPGRR showed an IC50 of 1890 nM. Work on YTFVFADLR yielded an IC50 of 6.6 nM. Work on RFHSIAGQYK yielded an IC50 of 629 nM. Work on RLYSKVSEFR yielded an IC50 of 690 nM. With KSMLKELIK the IC50 was over 46500 nM. GVNHQHLPAK gave an IC50 of 76200 nM. With KISEYRHYNR the IC50 was 161 nM. SSFDIKSEVK showed an IC50 of 70300 nM. RVHFASPLH showed an IC50 of over 123000 nM. For KFYSKISEYK, the IC50 was 329 nM. With FAFADLTVVY the IC50 was 26800 nM. GVSHAQLPAK gave an IC50 of over 74900 nM. KTLGISYGR was tested, and the IC50 was 502 nM. For AVPGGYPRRK, the IC50 was over 5570 nM. With KVGSLQYLK the IC50 was over 43700 nM. Sequence AVADLTVVYR has an IC50 of 892 nM. Work on QMMNVNLQK yielded an IC50 of 6650 nM. In the case of VTVRIGGMQK, the IC50 is reported as 44400 nM. GVSGPGPGK was tested, and the IC50 was over 112000 nM. Work on STGPGPGVVRR yielded an IC50 of 5980 nM. Sequence VTVYGPGPGWK has an IC50 of over 103000 nM. In the case of FISFYLINK, the IC50 is reported as 1460 nM. In the case of DTVYGDTLEK, the IC50 is reported as 55100 nM. Work on EVLEIPLIDLR yielded an IC50 of 72 nM. EVYNFACTELK gave an IC50 of 5.9 nM.

What follows are sequences tested against HLA-A*0301 (Homo sapiens, UniProt P04439) (assay: biochemical).
Assay type: binding
ALERLLSLK showed an IC50 of 233 nM. Work on STLGPGPGVRR yielded an IC50 of 892 nM. In the case of NSVYGETLER, the IC50 is reported as 150 nM. ETVRHFPR showed an IC50 of over 13500 nM. Sequence STLPGPGPGRR has an IC50 of 297 nM. YTFVFADLR was tested, and the IC50 was 3630 nM. For RFHSIAGQYK, the IC50 was 17 nM. For RLYSKVSEFR, the IC50 was 6.4 nM. With KSMLKELIK the IC50 was 189 nM. GVNHQHLPAK was tested, and the IC50 was 42 nM. KISEYRHYNR was tested, and the IC50 was 58 nM. Sequence SSFDIKSEVK has an IC50 of 1900 nM. Sequence RVHFASPLH has an IC50 of 12 nM. Work on KFYSKISEYK yielded an IC50 of 7.6 nM. Work on FAFADLTVVY yielded an IC50 of 18600 nM. GVSHAQLPAK showed an IC50 of 42 nM. KTLGISYGR showed an IC50 of 53 nM. AVPGGYPRRK gave an IC50 of 819 nM. In the case of KVGSLQYLK, the IC50 is reported as 482 nM. AVADLTVVYR showed an IC50 of 489 nM. With QMMNVNLQK the IC50 was 20 nM. In the case of VTVRIGGMQK, the IC50 is reported as 54 nM. Sequence GVSGPGPGK has an IC50 of 13 nM. STGPGPGVVRR gave an IC50 of 18700 nM. VTVYGPGPGWK showed an IC50 of 1150 nM. For FISFYLINK, the IC50 was 19 nM. DTVYGDTLEK gave an IC50 of 50 nM. With EVLEIPLIDLR the IC50 was over 47000 nM. EVYNFACTELK showed an IC50 of 1620 nM.

These sequences were tested against HLA-A*1101 (Homo sapiens, UniProt P04439, A114D/D185E/E176A/F33Y/L180Q/S129P/T187R) (assay: biochemical).
HLA-A*1101, sequence (P04439 25-365 limits assumed, stated change not applied): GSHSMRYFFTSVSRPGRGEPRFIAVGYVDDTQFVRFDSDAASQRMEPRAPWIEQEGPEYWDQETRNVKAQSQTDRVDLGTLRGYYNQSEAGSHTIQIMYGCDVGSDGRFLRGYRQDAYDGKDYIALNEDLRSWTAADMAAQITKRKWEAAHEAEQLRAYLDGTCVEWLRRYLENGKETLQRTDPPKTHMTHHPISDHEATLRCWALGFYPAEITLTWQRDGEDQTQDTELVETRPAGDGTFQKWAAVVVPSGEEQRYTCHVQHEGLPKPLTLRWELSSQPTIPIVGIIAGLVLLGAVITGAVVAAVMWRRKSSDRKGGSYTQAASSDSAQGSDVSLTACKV
Assay type: binding
Work on ALERLLSLK yielded an IC50 of 369 nM. For STLGPGPGVRR, the IC50 was 19 nM. NSVYGETLER was tested, and the IC50 was 25 nM. For ETVRHFPR, the IC50 was 4180 nM. Work on STLPGPGPGRR yielded an IC50 of 19 nM. In the case of YTFVFADLR, the IC50 is reported as 8.1 nM. For RFHSIAGQYK, the IC50 was 43 nM. RLYSKVSEFR gave an IC50 of 131 nM. Work on KSMLKELIK yielded an IC50 of 151 nM. Sequence GVNHQHLPAK has an IC50 of 11 nM. KISEYRHYNR showed an IC50 of 140 nM. Sequence SSFDIKSEVK has an IC50 of 19 nM. For RVHFASPLH, the IC50 was 60 nM. KFYSKISEYK showed an IC50 of 674 nM. With FAFADLTVVY the IC50 was 5870 nM. In the case of GVSHAQLPAK, the IC50 is reported as 12 nM. KTLGISYGR was tested, and the IC50 was 9.8 nM. With AVPGGYPRRK the IC50 was 60 nM. In the case of KVGSLQYLK, the IC50 is reported as 70 nM. For AVADLTVVYR, the IC50 was 11 nM. In the case of QMMNVNLQK, the IC50 is reported as 7 nM. VTVRIGGMQK gave an IC50 of 13 nM. For GVSGPGPGK, the IC50 was 5.8 nM. Sequence STGPGPGVVRR has an IC50 of 367 nM. In the case of VTVYGPGPGWK, the IC50 is reported as 18 nM. In the case of FISFYLINK, the IC50 is reported as 9 nM. DTVYGDTLEK showed an IC50 of 15 nM. EVLEIPLIDLR showed an IC50 of 16600 nM. EVYNFACTELK was tested, and the IC50 was 117 nM.

The sequences below were run against HLA-A*3101 (Homo sapiens, UniProt P04439, A270S/D185E/E176V/E277Q/F33T/G231S/G80R/H175R/I121M/I218V/I322F/K168Q/L300P/L318F/M331R/P217A/Q94H/R138Q/T323A/T345S/T97I/V358M) (assay: biochemical).
Assay type: binding
ALERLLSLK showed an IC50 of 3430 nM. Sequence STLGPGPGVRR has an IC50 of 42 nM. With NSVYGETLER the IC50 was 163 nM. ETVRHFPR was tested, and the IC50 was 1000 nM. For STLPGPGPGRR, the IC50 was 61 nM. Work on YTFVFADLR yielded an IC50 of 20 nM. RFHSIAGQYK gave an IC50 of 1.3 nM. RLYSKVSEFR gave an IC50 of 24 nM. Work on KSMLKELIK yielded an IC50 of 450 nM. For GVNHQHLPAK, the IC50 was 3340 nM. For KISEYRHYNR, the IC50 was 17 nM. SSFDIKSEVK showed an IC50 of 19800 nM. In the case of RVHFASPLH, the IC50 is reported as 572 nM. In the case of KFYSKISEYK, the IC50 is reported as 27 nM. FAFADLTVVY showed an IC50 of 23700 nM. For GVSHAQLPAK, the IC50 was 36000 nM. KTLGISYGR was tested, and the IC50 was 21 nM. Sequence AVPGGYPRRK has an IC50 of 40000 nM. For KVGSLQYLK, the IC50 was 2100 nM. Sequence AVADLTVVYR has an IC50 of 31 nM. Work on QMMNVNLQK yielded an IC50 of 504 nM. VTVRIGGMQK showed an IC50 of 2580 nM. For GVSGPGPGK, the IC50 was over 11200 nM. In the case of STGPGPGVVRR, the IC50 is reported as 95 nM. In the case of VTVYGPGPGWK, the IC50 is reported as over 9000 nM. Work on FISFYLINK yielded an IC50 of 2190 nM. Work on DTVYGDTLEK yielded an IC50 of 28800 nM. Work on EVLEIPLIDLR yielded an IC50 of 36400 nM. Sequence EVYNFACTELK has an IC50 of 484 nM.
